Measurements published in ChEMBL document CHEMBL5678816, “A Next-Generation TRK Kinase Inhibitor Overcomes Acquired Resistance to Prior TRK Kinase Inhibition in Patients with TRK Fusion-Positive Solid Tumors” (Cancer Discov, 2017).
Calls of active or inactive are those of the source. The rule behind the calls is not given here.

Experiments:
[1] = target: CDK6/cyclin D3 (Homo sapiens) (UniProt P30281+Q00534); assay: Inhibition of CDK6/cyclinD3 (unknown origin) at 1 uM in presence of ATP relative to control; values are per cent of control
[2] = target: Proto-oncogene tyrosine-protein kinase Src (Homo sapiens) (UniProt P12931); assay: Inhibition of SrC (unknown origin) at 1 uM in presence of ATP relative to control; values are per cent of control
TT = assay: Inhibition of cell proliferation in human TT cells upto 10 umol/L incubated for 72 hrs by DAPI staining based analysis; format: functional; conditions: dose <= 10.0 µmol/L
[3] = target: Mitogen-activated protein kinase 14 (Homo sapiens) (UniProt Q16539); assay: Inhibition of p38alpha (unknown origin) at 1 uM in presence of ATP relative to control; values are per cent of control
[4] = target: Rhodopsin kinase GRK7 (Homo sapiens) (UniProt Q8WTQ7); assay: Inhibition of GRK7 (unknown origin) at 1 uM in presence of ATP relative to control; values are per cent of control
[5] = target: Protein kinase C theta type (Homo sapiens) (UniProt Q04759); assay: Inhibition of PKCtheta (unknown origin) at 1 uM in presence of ATP relative to control; values are per cent of control
[6] = Oral bioavailability in monkey at 10 mg/kg administered as 20% hydroxypropyl-beta-cyclodextrin formulation by LC-MS analysis; format: ADME, organism-based, Macaca mulatta; conditions: rhesus monkey, in vivo
[7] = target: Receptor-interacting serine/threonine-protein kinase 2 (Homo sapiens) (UniProt O43353); assay: Inhibition of RIPK2 (unknown origin) at 1 uM in presence of ATP relative to control; values are per cent of control
[8] = target: Serine/threonine-protein kinase D2 (Homo sapiens) (UniProt Q9BZL6); assay: Inhibition of PKD2 (unknown origin) at 1 uM in presence of ATP relative to control; values are per cent of control
[9] = target: Tyrosine-protein kinase Fgr (Homo sapiens) (UniProt P09769); assay: Inhibition of Fgr (unknown origin) at 1 uM in presence of ATP relative to control; values are per cent of control
NIH3T3 = assay: In vivo inhibition of […] in nu/nu NCr mouse implanted with mouse NIH3T3 cells harboring extracellular domain deleted […] assessed as reduction in […] phosphorylation at 10 to 100 mg/kg, po administered twice daily for 3 days and measured after 2 hrs post last dose by ELISA; format: functional, organism-based; conditions: dose 10-100 mg/kg, time 3.0 day
[10] = AUC in pediatric patient with recurrent ETV6-NTRK3-rearranged infantile fibrosarcoma at 60 mg administered twice a day as liquid formulation for 8 day by LC-MS/MS analysis; format: ADME; conditions: human, in vivo
Homo sapiens = species on record: Homo sapiens; assay: Inhibition of TEC Activated (unknown origin) at 1 uM in presence of ATP relative to control; values are per cent of control
[11] = target: Ephrin type-A receptor 8 (Homo sapiens) (UniProt P29322); assay: Inhibition of EphA8 (unknown origin) at 1 uM in presence of ATP relative to control; values are per cent of control
MZ-CRC-1 = assay: Inhibition of cell proliferation in human MZ-CRC-1 cells upto 10 umol/L incubated for 72 hrs by DAPI staining based analysis; format: functional; conditions: dose <= 10.0 µmol/L
[12] = target: Ephrin type-A receptor 4 (Homo sapiens) (UniProt P54764); assay: Inhibition of EphA4 (unknown origin) at 1 uM in presence of ATP relative to control; values are per cent of control
[13] = target: Casein kinase I isoform gamma-2 (Homo sapiens) (UniProt P78368); assay: Inhibition of CK1gamma2 (unknown origin) at 1 uM in presence of ATP relative to control; values are per cent of control
[14] = target: Serine/threonine-protein kinase MRCK beta (Homo sapiens) (UniProt Q9Y5S2); assay: Inhibition of MRCKbeta (unknown origin) at 1 uM in presence of ATP relative to control; values are per cent of control
[15] = target: Muscle, skeletal receptor tyrosine-protein kinase (Homo sapiens) (UniProt O15146); assay: Inhibition of MUSK (unknown origin) at 1 uM in presence of ATP relative to control; values are per cent of control
[16] = AUC in pediatric patient with recurrent ETV6-NTRK3-rearranged infantile fibrosarcoma at 100 mg administered twice a day as liquid formulation for 29 day by LC-MS/MS analysis; format: ADME; conditions: human, in vivo
[17] = target: Dual specificity protein kinase CLK3 (Homo sapiens) (UniProt P49761); assay: Inhibition of CLK3 (unknown origin) at 1 uM in presence of ATP relative to control; values are per cent of control
[18] = target: Tyrosine-protein kinase ZAP-70 (Homo sapiens) (UniProt P43403); assay: Inhibition of ZAP-70 (unknown origin) at 1 uM in presence of ATP relative to control; values are per cent of control
[19] = target: G protein-coupled receptor kinase 5 (Homo sapiens) (UniProt P34947); assay: Inhibition of GRK5 (unknown origin) at 1 uM in presence of ATP relative to control; values are per cent of control
CAL-62 = assay: Inhibition of cell proliferation in human CAL-62 cells upto 10 umol/L incubated for 72 hrs by DAPI staining based analysis; format: functional; conditions: dose <= 10.0 µmol/L
[20] = target: Angiopoietin-1 receptor (Homo sapiens) (UniProt Q02763); assay: Inhibition of Tie2 (unknown origin) at 1 uM in presence of ATP relative to control; values are per cent of control
KM12 = assay: Antitumor activity against human KM12 cells harboring TPM3-TRKA fusion protein xenografted in nu/nu NCr mouse assessed as inhibition of tumor growth at 30 to 300 mg/kg, po administered twice daily for 11 days; format: functional, organism-based; conditions: dose 30-300 mg/kg, time 11.0 day
[21] = target: Tyrosine-protein kinase receptor TYRO3 (Homo sapiens) (UniProt Q06418); assay: Inhibition of Rse (unknown origin) at 1 uM in presence of ATP relative to control; values are per cent of control
[22] = target: Mitogen-activated protein kinase 11 (Homo sapiens) (UniProt Q15759); assay: Inhibition of p38beta (unknown origin) at 1 uM in presence of ATP relative to control; values are per cent of control

Ephrin type-A receptor 4 (Homo sapiens), sequence (P54764 whole entry, canonical isoform): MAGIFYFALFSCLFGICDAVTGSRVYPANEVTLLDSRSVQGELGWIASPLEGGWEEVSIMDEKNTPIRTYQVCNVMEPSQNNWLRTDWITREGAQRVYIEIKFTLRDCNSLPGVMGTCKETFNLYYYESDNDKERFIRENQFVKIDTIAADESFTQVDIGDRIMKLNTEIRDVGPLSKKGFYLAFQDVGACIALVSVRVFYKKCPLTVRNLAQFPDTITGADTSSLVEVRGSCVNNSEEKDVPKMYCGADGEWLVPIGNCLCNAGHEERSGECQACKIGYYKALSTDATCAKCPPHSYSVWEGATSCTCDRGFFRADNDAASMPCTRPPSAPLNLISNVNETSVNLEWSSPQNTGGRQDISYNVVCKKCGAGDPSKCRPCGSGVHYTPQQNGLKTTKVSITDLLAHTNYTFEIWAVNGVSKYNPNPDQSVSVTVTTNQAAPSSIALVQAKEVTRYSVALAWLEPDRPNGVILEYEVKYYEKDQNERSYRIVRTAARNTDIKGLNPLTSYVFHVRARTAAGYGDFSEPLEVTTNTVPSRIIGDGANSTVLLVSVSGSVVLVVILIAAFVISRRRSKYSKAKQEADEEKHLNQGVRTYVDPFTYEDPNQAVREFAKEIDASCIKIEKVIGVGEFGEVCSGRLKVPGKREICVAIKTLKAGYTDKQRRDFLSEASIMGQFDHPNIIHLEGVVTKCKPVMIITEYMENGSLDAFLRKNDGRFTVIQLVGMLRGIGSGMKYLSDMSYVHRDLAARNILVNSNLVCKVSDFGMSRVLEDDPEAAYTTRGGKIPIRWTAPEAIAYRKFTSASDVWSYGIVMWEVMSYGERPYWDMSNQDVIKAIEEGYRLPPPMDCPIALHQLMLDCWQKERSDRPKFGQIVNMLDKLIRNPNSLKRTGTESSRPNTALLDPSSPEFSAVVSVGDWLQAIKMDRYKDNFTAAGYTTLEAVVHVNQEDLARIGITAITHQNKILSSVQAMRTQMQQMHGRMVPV
Rhodopsin kinase GRK7 (Homo sapiens), sequence (Q8WTQ7 whole entry): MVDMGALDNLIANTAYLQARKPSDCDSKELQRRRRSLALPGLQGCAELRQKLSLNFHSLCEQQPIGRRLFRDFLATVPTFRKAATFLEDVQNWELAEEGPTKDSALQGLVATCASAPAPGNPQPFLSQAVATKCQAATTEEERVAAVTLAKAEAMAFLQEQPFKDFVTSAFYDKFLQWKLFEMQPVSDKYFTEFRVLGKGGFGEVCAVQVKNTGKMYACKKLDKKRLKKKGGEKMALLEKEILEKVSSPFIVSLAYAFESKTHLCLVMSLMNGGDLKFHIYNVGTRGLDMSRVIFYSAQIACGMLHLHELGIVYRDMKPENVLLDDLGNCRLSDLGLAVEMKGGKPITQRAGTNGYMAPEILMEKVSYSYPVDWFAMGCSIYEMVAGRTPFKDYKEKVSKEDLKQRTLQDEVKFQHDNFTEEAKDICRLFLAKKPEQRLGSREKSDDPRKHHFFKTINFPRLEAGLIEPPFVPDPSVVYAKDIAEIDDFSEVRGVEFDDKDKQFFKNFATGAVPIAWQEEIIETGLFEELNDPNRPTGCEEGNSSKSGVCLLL
Tyrosine-protein kinase receptor TYRO3 (Homo sapiens), sequence (Q06418 whole entry): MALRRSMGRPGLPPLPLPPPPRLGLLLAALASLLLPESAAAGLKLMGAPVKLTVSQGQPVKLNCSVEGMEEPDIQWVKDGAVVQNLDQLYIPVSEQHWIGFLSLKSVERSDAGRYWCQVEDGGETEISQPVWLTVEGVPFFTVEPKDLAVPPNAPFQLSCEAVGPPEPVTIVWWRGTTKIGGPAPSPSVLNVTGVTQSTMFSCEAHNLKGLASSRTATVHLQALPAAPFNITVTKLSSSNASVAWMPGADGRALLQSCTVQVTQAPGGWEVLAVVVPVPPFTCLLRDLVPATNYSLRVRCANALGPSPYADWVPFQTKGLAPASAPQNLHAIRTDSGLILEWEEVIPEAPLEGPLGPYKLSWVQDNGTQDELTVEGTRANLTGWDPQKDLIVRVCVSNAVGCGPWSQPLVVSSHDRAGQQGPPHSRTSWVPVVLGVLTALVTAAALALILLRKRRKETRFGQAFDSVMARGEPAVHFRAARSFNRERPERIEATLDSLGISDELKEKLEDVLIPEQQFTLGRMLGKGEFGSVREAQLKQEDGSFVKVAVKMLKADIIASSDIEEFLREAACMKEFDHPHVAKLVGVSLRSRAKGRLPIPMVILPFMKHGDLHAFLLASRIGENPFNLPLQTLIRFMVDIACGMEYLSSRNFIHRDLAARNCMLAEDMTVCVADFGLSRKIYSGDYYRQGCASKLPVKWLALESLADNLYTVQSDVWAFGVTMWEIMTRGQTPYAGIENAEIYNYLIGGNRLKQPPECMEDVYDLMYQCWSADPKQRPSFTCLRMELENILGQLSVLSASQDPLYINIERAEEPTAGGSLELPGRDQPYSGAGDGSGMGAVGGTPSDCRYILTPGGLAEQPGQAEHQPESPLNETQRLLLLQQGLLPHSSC
Angiopoietin-1 receptor (Homo sapiens), sequence (Q02763 whole entry, the tested form may be a part): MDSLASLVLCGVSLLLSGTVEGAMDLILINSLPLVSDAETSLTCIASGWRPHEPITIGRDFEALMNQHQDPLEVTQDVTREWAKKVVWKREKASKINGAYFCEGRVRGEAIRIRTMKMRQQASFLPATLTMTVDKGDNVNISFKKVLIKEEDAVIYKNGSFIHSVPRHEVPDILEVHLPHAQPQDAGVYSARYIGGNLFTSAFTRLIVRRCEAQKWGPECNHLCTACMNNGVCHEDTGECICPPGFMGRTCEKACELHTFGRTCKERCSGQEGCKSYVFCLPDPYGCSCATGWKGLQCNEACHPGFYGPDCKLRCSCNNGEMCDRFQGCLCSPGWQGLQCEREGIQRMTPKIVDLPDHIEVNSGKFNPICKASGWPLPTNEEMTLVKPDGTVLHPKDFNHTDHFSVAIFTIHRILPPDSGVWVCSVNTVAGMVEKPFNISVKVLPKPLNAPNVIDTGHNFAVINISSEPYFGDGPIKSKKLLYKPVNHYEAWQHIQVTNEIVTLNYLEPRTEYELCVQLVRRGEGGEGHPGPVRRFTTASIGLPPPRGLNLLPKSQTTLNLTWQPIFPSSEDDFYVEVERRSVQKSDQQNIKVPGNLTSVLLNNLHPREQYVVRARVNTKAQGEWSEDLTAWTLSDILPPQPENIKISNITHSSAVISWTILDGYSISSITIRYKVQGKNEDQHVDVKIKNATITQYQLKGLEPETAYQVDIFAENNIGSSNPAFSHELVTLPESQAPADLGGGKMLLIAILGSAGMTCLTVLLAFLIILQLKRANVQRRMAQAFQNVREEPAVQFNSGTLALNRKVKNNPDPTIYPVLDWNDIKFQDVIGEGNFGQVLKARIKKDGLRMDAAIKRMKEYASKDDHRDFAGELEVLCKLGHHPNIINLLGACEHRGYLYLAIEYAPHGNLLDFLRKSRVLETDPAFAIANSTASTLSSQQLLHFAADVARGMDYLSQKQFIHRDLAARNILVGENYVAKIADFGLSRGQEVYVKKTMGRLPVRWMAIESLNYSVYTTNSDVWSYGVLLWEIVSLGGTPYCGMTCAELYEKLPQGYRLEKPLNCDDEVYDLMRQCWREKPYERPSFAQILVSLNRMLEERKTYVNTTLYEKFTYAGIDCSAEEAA
Serine/threonine-protein kinase D2 (Homo sapiens), sequence (Q9BZL6 whole entry): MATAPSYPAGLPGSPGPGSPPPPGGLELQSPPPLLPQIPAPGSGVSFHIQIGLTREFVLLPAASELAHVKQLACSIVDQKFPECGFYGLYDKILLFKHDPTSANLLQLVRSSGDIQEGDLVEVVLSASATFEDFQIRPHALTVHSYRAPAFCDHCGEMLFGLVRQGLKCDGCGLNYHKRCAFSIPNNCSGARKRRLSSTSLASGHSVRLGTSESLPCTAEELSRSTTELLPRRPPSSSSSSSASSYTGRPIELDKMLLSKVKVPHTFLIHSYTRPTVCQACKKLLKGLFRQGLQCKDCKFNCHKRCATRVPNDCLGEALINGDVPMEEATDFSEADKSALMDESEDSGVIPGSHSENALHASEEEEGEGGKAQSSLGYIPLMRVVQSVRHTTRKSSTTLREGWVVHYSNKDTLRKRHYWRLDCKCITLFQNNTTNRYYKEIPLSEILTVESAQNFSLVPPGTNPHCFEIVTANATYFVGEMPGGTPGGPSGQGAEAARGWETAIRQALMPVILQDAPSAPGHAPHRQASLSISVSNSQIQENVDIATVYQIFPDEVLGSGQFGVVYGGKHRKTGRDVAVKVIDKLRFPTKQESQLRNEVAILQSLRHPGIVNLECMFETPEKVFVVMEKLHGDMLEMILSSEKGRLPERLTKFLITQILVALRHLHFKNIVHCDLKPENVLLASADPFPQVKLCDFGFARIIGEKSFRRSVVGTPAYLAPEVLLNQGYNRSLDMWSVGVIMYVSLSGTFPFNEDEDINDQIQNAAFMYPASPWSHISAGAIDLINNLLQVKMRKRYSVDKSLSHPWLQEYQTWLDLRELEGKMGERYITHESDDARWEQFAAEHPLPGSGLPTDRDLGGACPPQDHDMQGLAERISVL
Proto-oncogene tyrosine-protein kinase Src (Homo sapiens), sequence (P12931 2-536 limits assumed): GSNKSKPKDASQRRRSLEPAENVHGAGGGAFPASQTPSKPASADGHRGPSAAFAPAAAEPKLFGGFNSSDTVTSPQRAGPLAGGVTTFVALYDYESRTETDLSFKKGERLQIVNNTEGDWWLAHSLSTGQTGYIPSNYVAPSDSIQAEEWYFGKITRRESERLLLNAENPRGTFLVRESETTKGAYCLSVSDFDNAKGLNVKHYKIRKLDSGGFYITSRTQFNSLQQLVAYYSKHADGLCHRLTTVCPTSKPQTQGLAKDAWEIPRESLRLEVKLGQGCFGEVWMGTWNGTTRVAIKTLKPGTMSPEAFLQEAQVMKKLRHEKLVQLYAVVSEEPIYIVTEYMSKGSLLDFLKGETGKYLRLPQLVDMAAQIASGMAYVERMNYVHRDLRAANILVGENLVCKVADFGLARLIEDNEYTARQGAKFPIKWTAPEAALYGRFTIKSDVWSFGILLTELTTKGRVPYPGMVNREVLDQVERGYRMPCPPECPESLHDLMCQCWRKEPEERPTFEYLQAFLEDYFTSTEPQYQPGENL

residual activity [1]: 110%
residual activity [2]: 102%
residual activity [3]: 109%
residual activity [4]: 70.5%
residual activity [5]: 108%
bioavailability [6]: 2%
residual activity [7]: 100%
residual activity [8]: 110%
residual activity [9]: 96%
AUC at 192 h [10]: 2.01 µg·h/mL
residual activity (Homo sapiens): 112%
residual activity [11]: 81.5%
residual activity [12]: 102%
residual activity [13]: 112%
residual activity [14]: 128%
residual activity [15]: 89.5%
AUC at 696 h [16]: 4.41 µg·h/mL
residual activity [17]: 104%
residual activity [18]: 118%
residual activity [19]: 110%
residual activity [20]: 119%
residual activity [21]: 110%
residual activity [22]: 123%
Structure (SMILES): C[C@@H]1CCc2ncc(F)cc2[C@H]2CCCN2c2ccn3ncc(c3n2)C(=O)N1 [SELITRECTINIB]
inhibition (TT): inactive
inhibition (NIH3T3): Active
inhibition (MZ-CRC-1): inactive
inhibition (CAL-62): inactive
Activity (KM12): Active
